# From patent US9850225B2, “Compounds useful as immunomodulators” (BRISTOL-MYERS SQUIBB COMPANY, priority 2014, dated 2017)
# pIC50: −log10 of the molar value.
# Molecular target: PD-1/PD-L1 interaction (PD-1-Ig / PD-L1-His) (Homo sapiens (Human), UniProt Q9NZQ7)
# Experiment: PD-1/PD-L1 Homogenous Time-Resolved Fluorescence (HTRF) binding assay
# Conditions: PD-1/PD-L1 HTRF binding assay; numeric value; read-out: Range or IC50
# Outline: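 HTRF detection used 1 nM europium-cryptate anti-Ig and 20 nM APC anti-His. Compounds first saw 10 nM PD-L1-His for 15 min, and 20 nM PD-1-Ig was then added for another 15 min. Buffer was dPBS plus 0.1% BSA and 0.05% Tween-20. All concentrations are final.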
# Chain of PD-1/PD-L1 interaction (PD-1-Ig / PD-L1-His) (Q9NZQ7 other isoform, or with tags, fused parts or gaps): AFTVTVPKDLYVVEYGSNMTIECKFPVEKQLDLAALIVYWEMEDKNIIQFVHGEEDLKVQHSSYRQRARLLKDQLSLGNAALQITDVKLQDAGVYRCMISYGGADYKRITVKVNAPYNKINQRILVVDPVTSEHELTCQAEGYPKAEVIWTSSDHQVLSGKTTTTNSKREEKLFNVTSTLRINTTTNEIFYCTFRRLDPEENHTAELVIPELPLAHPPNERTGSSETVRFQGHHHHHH
row,pIC50,Structure (SMILES)
1,9.04,"CC(=O)NCCNCc1cc(C)c(OCc2cccc(-c3ccc4c(c3)OCCO4)c2C#N)cc1OCc1cncc(C#N)c1 [Example 1305, N-(2-(4-(2-cyano-3-(2,3-dihydrobenzo[b][1,4]dioxin-6-yl)benzyloxy)-2-((5-cyanopyridin-3-yl)methoxy)-5-methylbenzylamino)ethyl)acetamide]"
2,8.00,"Cc1c(COc2cc(OCc3cccc(C#N)c3)c(CNC(CO)(Cc3ccccc3)C(=O)O)cc2Cl)cccc1-c1ccc2c(c1)OCCO2 (centres unmarked) [Example 1218, 2-benzyl-2-((5-chloro-2-((3-cyanobenzyl)oxy)-4-((3-(2,3-dihydrobenzo[b][1,4]dioxin-6-yl)-2-methylbenzyl)oxy)benzyl)amino)-3-hydroxypropanoic acid]"
3,8.26,"Cc1c(COc2cc(OCc3cncc(C#N)c3)c(CN[C@H](CC(N)=O)C(=O)O)cc2Cl)cccc1-c1ccc2c(c1)OCCO2 [Example 3024, (R)-4-amino-2-((5-chloro-2-((5-cyanopyridin-3-yl)methoxy)-4-((3-(2,3-dihydrobenzo[b][1,4]dioxin-6-yl)-2-methylbenzyl)oxy)benzyl)amino)-4-oxobutanoic acid]"

# Same assay, conditions: PD-1/PD-L1 HTRF binding assay; value given as range class; read-out: Range or IC50
row,Structure (SMILES),pIC50
1,"Cc1c(COc2cc(OCc3cccc(C#N)c3)c(CNCc3nnn[nH]3)cc2Cl)cccc1-c1ccc2c(c1)OCCO2 [Example 1229, 3-((2-((((1H-tetrazol-5-yl)methyl)amino)methyl)-4-chloro-5-((3-(2,3-dihydrobenzo[b][1,4]dioxin-6-yl)-2-methylbenzyl)oxy)phenoxy)methyl)benzonitrile]",8.00 to 9.22
2,"CC(=O)NCCNCc1cc(C)c(OCc2cccc(-c3ccc4c(c3)OCCO4)c2C#N)cc1OCc1cncc(C#N)c1 [Example 1305, N-(2-(4-(2-cyano-3-(2,3-dihydrobenzo[b][1,4]dioxin-6-yl)benzyloxy)-2-((5-cyanopyridin-3-yl)methoxy)-5-methylbenzylamino)ethyl)acetamide]",8.00 to 9.22
3,"Cc1c(COc2ccc(CN[C@H](CO)C(=O)O)c(OCc3cccc(C(N)=O)c3)c2)cccc1-c1ccc2c(c1)OCCO2 [Example 1325, (R)-2-((2-((3-carbamoylbenzyl)oxy)-4-((3-(2,3-dihydrobenzo[b][1,4]dioxin-6-yl)-2-methylbenzyl)oxy)benzyl)amino)-3-hydroxypropanoic acid]",7.00 to 8.00
4,"CC[C@H](NCc1cc(Cl)c(OCc2cccc(-c3ccc4c(c3)OCCO4)c2C)cc1OCc1cccc(C#N)c1)C(=O)O [Example 1201, (S)-2-((5-chloro-2-((3-cyanobenzyl)oxy)-4-((3-(2,3-dihydrobenzo[b][1,4]dioxin-6-yl)-2-methylbenzyl)oxy)benzyl)amino)butanoic acid]",8.00 to 9.22
5,"Cc1c(COc2cc(OCc3cncc(C#N)c3)c(CN[C@H](CO)C(=O)O)cc2Cl)cccc1-c1ccc2c(c1)OCCO2 [Example 1249, (R)-2-((5-chloro-2-((5-cyanopyridin-3-yl)methoxy)-4-((3-(2,3-dihydrobenzo[b][1,4]dioxin-6-yl)-2-methylbenzyl)oxy)benzyl)amino)-3-hydroxypropanoic acid]",8.00 to 9.22
6,"Cc1c(COc2ccc(CN[C@H](CO)C(=O)O)c(OCCCCC#N)c2)cccc1-c1ccccc1 [Example 1143, (R)-2-((2-(4-cyanobutoxy)-4-((2-methyl-[1,1′-biphenyl]-3-yl)methoxy)benzyl)amino)-3-hydroxypropanoic acid]",8.00 to 9.22
7,"Cc1c(COc2ccc(CNC(C)(CO)C(=O)O)c(OCc3cccc(C#N)c3)c2)cccc1-c1ccccc1 (centres unmarked) [Example 1014, 2-((2-((3-cyanobenzyl)oxy)-4-((2-methyl-[1,1′-biphenyl]-3-yl)methoxy)benzyl)amino)-3-hydroxy-2-methylpropanoic acid]",8.00 to 9.22
8,"Cc1c(COc2cc(OCc3cncc(C#N)c3)c(CN3CCCC[C@H]3C(=O)O)cc2Br)cccc1-c1ccccc1 [Example 1298, (S)-1-(5-bromo-2-((5-cyanopyridin-3-yl)methoxy)-4-((2-methylbiphenyl-3-yl)methoxy)benzyl)piperidine-2-carboxylic acid]",8.00 to 9.22
9,"Cc1cc(CN[C@@](C)(CO)C(=O)O)c(OCc2cccnc2)cc1OCc1cccc(-c2ccc3c(c2)OCCO3)c1C [Example 1280, (S)-2-((4-((3-(2,3-dihydrobenzo[b][1,4]dioxin-6-yl)-2-methylbenzyl)oxy)-5-methyl-2-(pyridin-3-ylmethoxy)benzyl)amino)-3-hydroxy-2-methylpropanoic acid]",8.00 to 9.22
10,"CC(=O)NCCNCc1ccc(OCc2cccc(-c3ccccc3)c2C)cc1OCc1ccccc1C [Example 1045, N-(2-((4-((2-methyl-[1,1′-biphenyl]-3-yl)methoxy)-2-((2-methylbenzyl)oxy)benzyl)amino)ethyl)acetamide]",4.70 to 7.00
11,"CC(=O)NCCNCc1ccc(OCc2cccc(-c3ccccc3)c2C)cc1OCc1cccc(CO)c1 [Example 1037, N-(2-((2-((3-(hydroxymethyl)benzyl)oxy)-4-((2-methyl-[1,1′-biphenyl]-3-yl)methoxy)benzyl)amino)ethyl)acetamide]",4.70 to 7.00
12,"CC(=O)NCCNCc1ccc(OCc2cccc(-c3ccccc3)c2C)cc1OCc1noc(C)n1 [Example 1104, N-(2-((2-((5-methyl-1,2,4-oxadiazol-3-yl)methoxy)-4-((2-methyl-[1,1′-biphenyl]-3-yl)methoxy)benzyl)amino)ethyl)acetamide]",4.70 to 7.00
13,"COC(=O)c1ccc(COc2cc(OCc3cccc(-c4ccccc4)c3C)ccc2CNCCNC(C)=O)cc1 [Example 1067, methyl 4-((2-(((2-acetamidoethyl)amino)methyl)-5-((2-methyl-[1,1′-biphenyl]-3-yl)methoxy)phenoxy)methyl)benzoate]",4.70 to 7.00
14,"CC(=O)NCCNCc1c(C)cc(OCc2cccc(-c3ccc4c(c3)OCCO4)c2C)cc1OCc1cccc(C#N)c1 [Example 1000, N-(2-(2-(3-cyanobenzyloxy)-4-(3-(2,3-dihydrobenzo[b][1,4]dioxin-6-yl)-2-methylbenzyloxy)-6-methylbenzylamino)ethyl)acetamide]",7.00 to 8.00
15,"CC(=O)NCCNCc1ccc(OCc2cccc(-c3ccccc3)c2C)cc1OCc1cccc(OC(F)F)c1 [Example 1116, N-(2-((2-((3-(difluoromethoxy)benzyl)oxy)-4-((2-methyl-[1,1′-biphenyl]-3-yl)methoxy)benzyl)amino)ethyl)acetamide]",4.70 to 7.00
16,"Cc1c(COc2cc(OCc3cccc(C#N)c3)c(CN3CC[C@H](O)[C@H]3C(=O)O)cc2Cl)cccc1-c1ccc2c(c1)OCCO2 [Example 1219, (2S,3S)-1-(5-chloro-2-((3-cyanobenzyl)oxy)-4-((3-(2,3-dihydrobenzo[b][1,4]dioxin-6-yl)-2-methylbenzyl)oxy)benzyl)-3-hydroxypyrrolidine-2-carboxylic acid]",8.00 to 9.22
17,"Cc1c(COc2cc(OCc3ccccc3)c(CN3CCCC[C@H]3C(=O)O)cc2Cl)cccc1-c1ccc2c(c1)OCCO2 [Example 3028, (S)-1-(2-(benzyloxy)-5-chloro-4-((3-(2,3-dihydrobenzo[b][1,4]dioxin-6-yl)-2-methylbenzyl)oxy)benzyl)piperidine-2-carboxylic acid]",4.70 to 7.00
18,"Cc1c(COc2ccc(CNC[C@@H](O)CC(=O)O)c(OCc3cncc(C#N)c3)c2)cccc1-c1ccccc1 [Example 1328, (S)-4-((2-((5-cyanopyridin-3-yl)methoxy)-4-((2-methyl-[1,1′-biphenyl]-3-yl)methoxy)benzyl)amino)-3-hydroxybutanoic acid]",8.00 to 9.22

# The remaining lines, values ahead:
row,pIC50,Structure (SMILES)
1,8.00 to 9.22,"COc1cc(COc2cc(OCc3cccc(-c4ccc5c(c4)OCCO5)c3C)c(Cl)cc2CN[C@@](C)(CO)C(=O)O)cc(Cl)n1 [Example 3014, (S)-2-((5-chloro-2-((2-chloro-6-methoxypyridin-4-yl)methoxy)-4-((3-(2,3-dihydrobenzo[b][1,4]dioxin-6-yl)-2-methylbenzyl)oxy)benzyl)amino)-3-hydroxy-2-methylpropanoic acid]"
2,7.00 to 8.00,"CC(=O)NCCNCc1ccc(OCc2cccc(-c3ccccc3)c2C)cc1OCc1cccnc1 [Example 1117, N-(2-((4-((2-methyl-[1,1′-biphenyl]-3-yl)methoxy)-2-(pyridin-3-ylmethoxy)benzyl)amino)ethyl)acetamide]"
3,8.00 to 9.22,"Cc1c(COc2cc(OCc3cncc(C#N)c3)c(CNCC(=O)O)cc2Cl)cccc1-c1ccc2c(c1)OCCO2 [Example 2013, 2-((5-chloro-2-((5-cyanopyridin-3-yl)methoxy)-4-((3-(2,3-dihydrobenzo[b][1,4]dioxin-6-yl)-2-methylbenzyl)oxy)benzyl)amino)acetic acid]"
4,8.00 to 9.22,Cc1c(COc2cc(OCc3cccc(C#N)c3)c(CNCC(O)CN3CCCC3=O)cc2Cl)cccc1-c1ccc2c(c1)OCCO2 (centres unmarked) [Example 1225]
5,4.70 to 7.00,"CC(=O)NCCNCc1ccc(OCc2cccc(-c3ccccc3)c2C)cc1OCc1cc(F)cc(C(F)(F)F)c1 [Example 1081, N-(2-((2-((3-fluoro-5-(trifluoromethyl)benzyl)oxy)-4-((2-methyl-[1,1′-biphenyl]-3-yl)methoxy)benzyl)amino)ethyl)acetamide]"
6,8.00 to 9.22,"Cc1cc(CN[C@@](C)(CO)C(=O)O)c(OCc2cccc(C#N)c2)cc1OCc1cccc(-c2ccc3c(c2)OCCO3)c1C [Example 1267, (S)-2-((2-((3-cyanobenzyl)oxy)-4-((3-(2,3-dihydrobenzo[b][1,4]dioxin-6-yl)-2-methylbenzyl)oxy)-5-methylbenzyl)amino)-3-hydroxy-2-methylpropanoic acid]"
7,4.70 to 7.00,"CC(=O)NCCNCc1ccc(OCc2cccc(-c3ccccc3)c2C)cc1OCc1ccc2cn[nH]c2c1 [Example 1102, N-(2-((2-((1H-indazol-6-yl)methoxy)-4-((2-methyl-[1,1′-biphenyl]-3-yl)methoxy)benzyl)amino)ethyl)acetamide]"
8,8.00 to 9.22,"Cc1c(COc2cc(OCc3cccc(C#N)c3)c(CNC[C@@H](O)CC(=O)O)cc2Br)cccc1-c1ccc2c(c1)OCCO2 [Example 1300, (S)-4-((5-bromo-2-((3-cyanobenzyl)oxy)-4-((3-(2,3-dihydrobenzo[b][1,4]dioxin-6-yl)-2-methylbenzyl)oxy)benzyl)amino)-3-hydroxybutanoic acid]"
